One test deals with T1, mouse SSAO protein (Mus musculus, UniProt O70423).
T1 construct: Eli Lilly (provided, not a catalogue product)
T1 sequence (O70423 1-765): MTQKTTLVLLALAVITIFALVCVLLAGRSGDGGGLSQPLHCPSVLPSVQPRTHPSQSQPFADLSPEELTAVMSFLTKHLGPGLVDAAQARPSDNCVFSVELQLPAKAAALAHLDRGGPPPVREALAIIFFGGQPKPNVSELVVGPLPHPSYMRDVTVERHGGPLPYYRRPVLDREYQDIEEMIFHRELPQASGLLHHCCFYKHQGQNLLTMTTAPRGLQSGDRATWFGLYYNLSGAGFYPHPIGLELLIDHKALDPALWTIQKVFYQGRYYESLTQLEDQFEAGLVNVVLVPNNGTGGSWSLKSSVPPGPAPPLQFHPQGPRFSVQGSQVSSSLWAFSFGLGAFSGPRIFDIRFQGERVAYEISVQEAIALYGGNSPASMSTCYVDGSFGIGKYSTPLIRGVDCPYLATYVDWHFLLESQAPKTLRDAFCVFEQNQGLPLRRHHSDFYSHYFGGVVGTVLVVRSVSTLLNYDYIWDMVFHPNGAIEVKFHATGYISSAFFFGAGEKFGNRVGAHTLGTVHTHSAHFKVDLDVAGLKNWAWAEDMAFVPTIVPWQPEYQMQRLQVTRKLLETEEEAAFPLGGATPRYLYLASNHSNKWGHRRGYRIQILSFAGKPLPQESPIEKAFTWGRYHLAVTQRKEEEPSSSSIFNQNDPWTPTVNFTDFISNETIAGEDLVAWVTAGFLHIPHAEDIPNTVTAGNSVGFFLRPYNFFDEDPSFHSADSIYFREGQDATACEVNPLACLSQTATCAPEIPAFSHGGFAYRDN
In words: In vitro inhibitory activity on SSAO/VAP-1 (MAO-Glo assay), mouse. It is filed as biochemical. On the procedure:
(§1) This assay was used to evaluate the in vitro inhibitory activity of the compounds on SSAO/VAP-1 of different species. Recombinant human SSAO protein, mouse SSAO protein or rat SSAO protein (provided by Eli Lilly) were used. The enzyme activity detection kit, MAO-Glo Assay kit (V1402) was purchased from Promega. Enzyme reaction buffer (50 mM HEPES, 120 mM NaCl, 5 mM KCl, 2 mM CaCl2, 1.4 mM MgCl2, 0.001% Tween-20, pH7.4) was prepared. The test compound was dissolved in DMSO and diluted by 3-fold concentration in gradient. The final concentration of test compound in a 10 μL reaction system was 1 μM to 0.05 nM when SSAO was detected. The content of DMSO in the detection reaction was 1%. After the solution of test compound in DMSO was diluted in the enzyme reaction buffer at a volume ratio of 1:25, 2.5 μL of which was added to each well of detection plate, two replicates for each concentration. 5 μL of SSAO protein diluted in the enzyme reaction buffer was added to each well, the final concentration of which was 10 nM to 80 nM in 10 μL reaction system. The mixture was incubated at room temperature for 10 minutes. 2.5 μL of the reaction substrate diluted in the enzyme reaction buffer was added to each well, the final concentration of which was 10 μM in 10 μL reaction system. After the mixture was reacted at room temperature for 120 minutes, 10 μL of detection reagent was added to each well. The reaction solution was incubated for 20 minutes at room temperature, and the plate was read with Synergy Neo 2 for detection. The value was converted into inhibition rate by the following formula: Inhibition rate=(Signalpositive−Signaltest)/(Signalpositive−Signalnegative)×100%
(§2) Signalpositive was positive control without test compound. Signalnegative was negative control without test compound and SSAO enzyme, and Signaltest was detection value of each compound at different concentrations. IC50 value was calculated by using 4 parameter curve fitting.

The target in another test is T2, rat SSAO protein (Rattus norvegicus, UniProt O08590).
T2 construct: Eli Lilly (provided, not a catalogue product)
T2 sequence (O08590 1-763): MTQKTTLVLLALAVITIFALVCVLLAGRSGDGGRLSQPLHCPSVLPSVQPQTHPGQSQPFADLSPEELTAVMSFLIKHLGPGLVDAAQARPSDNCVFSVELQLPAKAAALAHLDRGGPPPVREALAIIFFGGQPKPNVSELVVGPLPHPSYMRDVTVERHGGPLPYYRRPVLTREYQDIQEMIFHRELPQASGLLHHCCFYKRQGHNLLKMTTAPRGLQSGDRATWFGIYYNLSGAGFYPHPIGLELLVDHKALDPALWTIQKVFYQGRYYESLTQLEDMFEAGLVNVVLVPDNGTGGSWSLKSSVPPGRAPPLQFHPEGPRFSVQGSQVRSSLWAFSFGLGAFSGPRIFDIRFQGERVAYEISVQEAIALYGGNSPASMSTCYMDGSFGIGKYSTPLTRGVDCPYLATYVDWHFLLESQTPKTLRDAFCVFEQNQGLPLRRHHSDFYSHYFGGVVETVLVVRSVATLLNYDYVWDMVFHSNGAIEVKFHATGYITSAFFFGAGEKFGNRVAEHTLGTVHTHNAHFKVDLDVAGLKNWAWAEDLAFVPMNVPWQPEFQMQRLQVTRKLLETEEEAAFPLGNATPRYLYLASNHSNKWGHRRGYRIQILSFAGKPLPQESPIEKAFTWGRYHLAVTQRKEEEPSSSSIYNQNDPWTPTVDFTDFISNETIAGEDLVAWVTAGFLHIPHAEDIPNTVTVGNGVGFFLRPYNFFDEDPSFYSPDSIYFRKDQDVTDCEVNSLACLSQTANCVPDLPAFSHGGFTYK
Description: In vitro inhibitory activity on SSAO/VAP-1 (MAO-Glo assay), rat. It is filed as biochemical. As for the experimental part: as §1, §2

The values that follow come from US12258336B2, “Preparation of seimicarbazide-sensitive amine oxidase inhibitor and use thereof” (SHANGHAI ENNOVABIO PHARMACEUTICALS CO., LTD., priority 2018, dated 2025).

For `COC1CC2CC1CN2c1ncc(OC/C(=C/F)CN)cn1` (stereo not drawn) [Example 2], the IC50 on mouse SSAO protein and at rat SSAO protein was under 100 nM in each case.
Take `NC/C(=C\F)COc1cnc(N2CCN(C3COC3)CC2)nc1` [Example 4, (E)-3-fluoro-2-(((2-(4-(oxbutan-3-yl)piperazin-1-yl)pyrimidin-5-yl)oxo)methyl)prop-2-en-1-amine]: the IC50 on mouse SSAO protein and on rat SSAO protein was under 100 nM throughout.
Turning to `COC1CC2CCC(C1)N2c1ncc(OC/C(=C/F)CN)cn1` (stereo not drawn) [Example 12], the IC50 at mouse SSAO protein and on rat SSAO protein was under 100 nM throughout.
